{"source": "patent US11318141B2", "about": "“Methods and compositions related to STK1-targeted small molecules as antibiotic resistance breakers” (Ohio State Innovation Foundation, priority 2017, dated 2022)", "key": {"S. aureus MW2-WT": {"tested_on": "S. aureus MW2-WT", "experiment": "microbe, parasite or virus in culture", "type": "cell-based, Staphylococcus aureus", "conditions": "E-test, 50 μM Inh2-B1, 6 antibiotics"}, "[1]": {"tested_on": "S. aureus MW2ΔSTK1 biofilms", "experiment": "Biofilm formation, crystal violet stain method", "type": "cell-based, Staphylococcus aureus", "conditions": "25 μM, further 48 h"}, "[2]": {"tested_on": "cell wall hydrolase genes in S. aureus MW2-WT", "experiment": "qRT-PCR mRNA expression of cell wall hydrolase genes", "type": "cell-based, Staphylococcus aureus", "conditions": "treated MW2-WT vs untreated", "procedure": "The late log phase-grown S. aureus strains MW2 wild-type, and isogenic ΔSTK1 and ΔSTP1 mutant strains, as well as S. aureus MW2 strain treated with 25 μM Inh2-B1 for 4 h, were subjected to lysostaphin treatment to obtain whole cell lysate. Total RNA from the resulting lysate was first extracted by TRIZOL™ (Invitrogen/Thermo) and treated with RNase-free DNaseI. High-quality total RNA (RIN>7.0, and 260/280 and 260/230 ratios >1.8) was then extracted by using RNA purification kit (Norgen, Canada) per manufacturer's instructions and confirmed by an Agilent 2100 Bioanalyzer (Agilent Technologies, Palo Alto, Calif.). The first-strand cDNA from the total RNA was generated, and relative mRNA concentration was quantitated using SYBR Green qRT-PCR master mix and specific primers, using a Light Cycler® 480 real-time PCR machine (Table 2). The results obtained for all samples (three biological replicates each in triplicates) were normalized to corresponding values of 16S rRNA. All results including relative fold-changes in the mRNA expression (mutant vs. wild-type or treated vs. nontreated) for individual genes were analyzed using Exor4 software (Roche Applied Science). Changes in expression ratios by more than 2-fold (up- or down-regulation) were considered as significant."}, "S. aureus MW2 wild-type": {"tested_on": "S. aureus MW2 wild-type", "experiment": "Checkerboard titration end-point bactericidal assay (MBC), Muller-Hinton agar", "type": "cell-based, Staphylococcus aureus", "conditions": "agent alone", "procedure": "FIGS. 15A-15B show checkerboard assays for determining bactericidal assay. Serial two-fold dilutions of 2 mM of Inh2-B1 (MW=411.58 g/mol) and (A) 3 mM ceftriaxone (MW=669.7 g/mol) were made in two separate 96-well plates in vertical (B1-B12 to H1-H2 wells) and horizontal (A2-H2 to A12-H12 wells) directions respectively. Serially diluted Inh2-B1 (100 μL) in the individual well was then mixed with the 100 μL serially diluted ceftriaxone present in the corresponding wells. The resulting various combinations of Inh2-B1 (starting from 1 mM) and ceftriaxone (starting from 1.5 mM) or cefotaxime (2.1 mM) as well as serially diluted one Inh2-B1 (B1 to H1) and ceftriaxone (A2-A12) or cefotaxime (A2-A12) were then incorporated in Muller-Hinton mini agar plates (2 mL). The agar plates were then seeded and diluted S. aureus MW2-wild-type culture equivalent to approximately 23±3 CFU. This checkerboard assay was used to determine the ideal combination of lowest concentration of Inh2-B1 and ceftriaxone that kills 99.9% of the wild-type MW2.\nSince the STK1 is not essential for bacterial survival and its absence results in retardation of growth, an end-point bactericidal assay was done, employing the Checkerboard titration method followed by a time-to-kill assay using the broth dilution method. The 96-well plate-based checkerboard titration assays were performed using the fixed number of CFUs of MW2 strain, and the survival of the bacteria was measured on solid agar plates as an end-point result. […] The cut-off value to designate clinical isolates of S. aureus for antibiotics, including Ceftriaxone (TX) and Cefotaxime (CT) as susceptible, is less than 4 μg/ml (i.e., <4.8 μM of TX, and <7 μM of CT). […] CFU counts of MW2-WT grown in the presence of various concentrations of Inh2-B1 were examined over a period of 16 h. […] Similarly, it was also determined CFU counts of MW2-WT and MW2ΔSTK1 strains each grown in the absence or the presence of 50 μM of Inh2-B1 and 1.5 μM Ceftriaxone (1 μg/ml) or […] Cefotaxime (1 μg/ml) for 16 h employing the broth dilution method. […] Further, to address whether MW2 or STK1 could become refractory to a potential combined therapy, the S. aureus MW2 wild-type strain was grown in the presence of suboptimal dose of Inh2-B1 alone and combination with Ceftriaxone and Cefotaxime (25 μM Inh2-B1 and 3 μM of Ceftriaxone or 3 μM Cefotaxime) for consecutive 10 generations.\n(§1) Subsequently, the susceptibility of S. aureus MW2 strain to Ceftriaxone, Cefotaxime, Inh2, and Inh2-B1 was confirmed by the CLSI recommended serial dilution method using Muller Hinton broth. Minimum bactericidal activity (MBC) was measured using Muller-Hinton agar. Changes in the MBC of Ceftriaxone/Cefotaxime in the presence of serially diluted Inh2-B1 was determined in two steps. Initial screening was carried out using the Checkerboard method using Muller-Hinton agar (FIG. 15). […] Subsequent time to kill assays were carried out using 50 μM Inh2-B1 and Ceftriaxone. Cefotaxime (1 μg/ml) in a final volume of 250 μl using a sterile 96-well (U-bottom) microtiter plate over a period of 16 h at 37° C. under constant rotation (120 rpm). Optical density and corresponding CFU counts were measured at every two-hour interval up to 8 hours with a final overnight reading at the end of incubation period. CFU counts were measured using appropriate dilution of 10 μl of properly mixed samples at each time interval."}, "S. aureus MW2": {"tested_on": "S. aureus MW2", "experiment": "Broth dilution susceptibility / growth inhibition assay, Muller Hinton broth", "type": "cell-based, Staphylococcus aureus", "conditions": "growth inhibition of S. aureus MW2", "procedure": "as §1, with “interval. All experiments were performed in three biological replicates and the statistical analysis of the results obtained at each time point was carried out by the non-parametric t-test with Welch's correction using GraphPad Prism 6 software.” for “interval.”"}, "[3]": {"experiment": "Stability in serum and body fluid", "type": "in vitro ADME"}}, "data": [{"smiles": "COC(=O)c1ccc2c(=O)[nH]c3c(C(=O)Nc4ccccc4)sc(=S)n3c2c1", "note": "[Inh2-B1, Methyl 5-oxo-3-(phenylcarbamoyl)-1-thioxo-4,5dihydro[1,3]thiazolo[3,4-a]quinazoline-8-carboxylate]", "values": [{"measurement": "effect on susceptibility patterns of antibiotics other than cell wall acting ones", "setting": "S. aureus MW2-WT", "result": "did not change susceptibility patterns"}, {"measurement": "effect on preformed biofilms", "setting": "[1]", "result": "did not affect biofilms of MW2ΔSTK1"}, {"measurement": "expression of cell wall hydrolase-encoding genes", "setting": "[2]", "result": "down-regulation of cell wall hydrolase-encoding genes"}, {"measurement": "MBC", "setting": "S. aureus MW2 wild-type; Staphylococcus aureus, MW2WILDTYPE, MW2, read-out: Minimum bactericidal concentration (MBC)", "result": 100, "unit": "µM"}, {"measurement": "concentration up to which growth of MW2 was seen", "setting": "S. aureus MW2 wild-type; further analysis", "result": 90, "unit": "µM"}, {"measurement": "concentration of wells with ≥1 CFU of wild-type MW2", "setting": "S. aureus MW2 wild-type; checkerboard", "result": "≤ 50", "unit": "µM"}, {"measurement": "concentration at which S. aureus MW2 still grows", "setting": "S. aureus MW2", "result": "> 50", "unit": "µM"}, {"measurement": "stability in the serum and body fluid, such as peritoneal fluid", "setting": "[3]", "result": "remain stable"}]}]}
